This note sets out measurements from patent US8507488B2, “Fused nitrogen containing heterocycles and compositions thereof as kinase inhibitors” (IRM LLC, priority 2008, dated 2013).

One assay concerns the target T1, Tel-TrkA (Homo sapiens, UniProt P04629).
T1 construct: dimerization domain of Tel (ETV6) transcription factor (fusion partner, human ETV6 P41212); expressed in transfected cells; host or cells: luciferase expressing Ba/F3 murine hematopoietic progenitor cells; the other entry of the earlier key: ETV6 (P41212, Transcription factor ETV6)
As to the kind of experiment: Inhibition of proliferation of Ba/F3 cells expressing Tel-TrkA (BaF3/Tel-TrkA, luciferase/Bright Glo readout). The format is cell-based. The conditions noted are these: read-out: Ba/F3 Tel-TrkA IC 50. The procedure: (§1) Test compounds were dissolved in DMSO (10 mM) and transferred into 1.4 mL flat bottom or V-shaped Matrix tubes carrying a unique 2D matrix chip by individual compound hubs. The numbers of these chips were distinctively linked to the individual compound identification numbers. The stock solutions were stored at −20° C. if not used immediately. For the test procedure the vials were defrosted and identified by a scanner whereby a working sheet is generated that guides the subsequent working steps.
(§2) Compound dilutions were made in 384 well plates. This format enabled the assay of maximally 28 individual test compounds at 12 concentrations (single points) including 2 reference compounds. The dilution protocol included the production of pre-dilution plates, master plates and assay plates: • Compound plates: 30 μL of individual compound (10 mM) DMSO solution including standard compound were transferred into columns 1 and 13 of a 384 well plate. 20 μL of DMSO were added to the rest of the wells and the compounds were serially diluted (1:3) by transferring 10 μL from a well in column 1 or 13 to the next well in column 2 or 14 respectively and successively with the help of a Minitrack robot. • Assay plates: Identical assay plates were then prepared by adding […] each of compound dilutions of the compound plates into 384-well “assay plates”. In the following the compounds were mixed with 50 μL of assays components (cells or enzyme) and tested for their inhibitory activity.
(§3) Compounds of Formula (I) were tested for their antiproliferative effect on Ba/F3 cells expressing either Tel-TrkA, Tel-TrkB or Tel-TrkC and an additional panel of 34 selected diverse kinases activated by fusion to the dimerizing partners Bcr or Tel (Abl, A1K, BMX, EphA3, EphB2, FGFR2, FGFR3, FGFR4, FGR, FLT1, FLT3, FLT4, FMS, IGF1R, InsR, JAK1, JAK2, JAK3, KDR, Kit, Lck, Lyn, MER, MET, PDGFRb, RET, RON, Ros-1, Src, Aurora, TIE2, TYK2, Tie1, ZAP70). The antiproliferative effect of these compounds on the different cell lines and on the non transformed cells were tested at 12 different concentrations of 3-fold serially diluted compounds in 384 well plates as described above (in media lacking IL3). The IC50 values of the compounds the different cell lines were determined from dose response curves.
(§4) The cell line used is the luciferase expressing Ba/F3 murine hematopoietic progenitor cell line transformed with human Tel-TrkA, Tel-TrkB or Tel-TrkC cDNAs (Ba/F3 EN A/B/C). These cells maintained in RPMI/10% fetal bovine serum (RPMI/FCS) supplemented with penicillin 50 mg/mL, streptomycin 50 mg/mL and L-glutamine […]. Untransformed Ba/F3 cells were similarly maintained with the addition 5 ng/ml of murine recombinant IL3. 50 μl of a Ba/F3 or Ba/F3 EN A/B/C cell suspension were plated in Greiner 384 well microplates (white)) at a density of 2000 cells per well. […] The cells were incubated for 48 hours at 37° C., 5% CO2. 25 μl of Bright Glo® (Promega) luciferase substrate is added to each well. The emited luminiscence is quantified using the ACQUEST™ luminescence system (Molecular Devices). IC50 values were calculated by linear regression analysis of the percentage inhibition of each compound at 12 concentrations.

A further assay deals with T2, Tel-TrkB (Homo sapiens, UniProt Q16620).
T2 construct: dimerization domain of Tel (ETV6) transcription factor (fusion partner, human ETV6 P41212); expressed in transfected cells; host or cells: luciferase expressing Ba/F3 murine hematopoietic progenitor cells; the other entry of the earlier key: ETV6 (P41212, Transcription factor ETV6)
T2 sequence (Q16620 538-822 limits assumed): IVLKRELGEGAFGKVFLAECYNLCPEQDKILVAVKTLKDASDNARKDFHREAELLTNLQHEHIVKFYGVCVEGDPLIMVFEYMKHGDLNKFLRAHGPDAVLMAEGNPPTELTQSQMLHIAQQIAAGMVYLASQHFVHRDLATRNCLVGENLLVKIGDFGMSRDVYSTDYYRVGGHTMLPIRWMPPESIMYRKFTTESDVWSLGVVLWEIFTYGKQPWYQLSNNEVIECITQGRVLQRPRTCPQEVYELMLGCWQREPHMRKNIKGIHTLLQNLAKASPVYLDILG
The assay is described as follows: Inhibition of proliferation of Ba/F3 cells expressing Tel-TrkB (BaF3/Tel-TrkB). The conditions noted are these: Ba/F3 Tel-TrkB cells; read-out: Ba/F3 Tel-TrkB IC 50. The format is cell-based. The procedure:
as §1, §2, §3, §4

Assay [1] deals with T3, full length rTrkA and mNGF (Rattus norvegicus, UniProt P35739).
T3 construct: co-expressing full length rTrkA and mNGF; expressed in transfected cells; host or cells: Ba/F3 cells
T3 sequence (P35739 33-799): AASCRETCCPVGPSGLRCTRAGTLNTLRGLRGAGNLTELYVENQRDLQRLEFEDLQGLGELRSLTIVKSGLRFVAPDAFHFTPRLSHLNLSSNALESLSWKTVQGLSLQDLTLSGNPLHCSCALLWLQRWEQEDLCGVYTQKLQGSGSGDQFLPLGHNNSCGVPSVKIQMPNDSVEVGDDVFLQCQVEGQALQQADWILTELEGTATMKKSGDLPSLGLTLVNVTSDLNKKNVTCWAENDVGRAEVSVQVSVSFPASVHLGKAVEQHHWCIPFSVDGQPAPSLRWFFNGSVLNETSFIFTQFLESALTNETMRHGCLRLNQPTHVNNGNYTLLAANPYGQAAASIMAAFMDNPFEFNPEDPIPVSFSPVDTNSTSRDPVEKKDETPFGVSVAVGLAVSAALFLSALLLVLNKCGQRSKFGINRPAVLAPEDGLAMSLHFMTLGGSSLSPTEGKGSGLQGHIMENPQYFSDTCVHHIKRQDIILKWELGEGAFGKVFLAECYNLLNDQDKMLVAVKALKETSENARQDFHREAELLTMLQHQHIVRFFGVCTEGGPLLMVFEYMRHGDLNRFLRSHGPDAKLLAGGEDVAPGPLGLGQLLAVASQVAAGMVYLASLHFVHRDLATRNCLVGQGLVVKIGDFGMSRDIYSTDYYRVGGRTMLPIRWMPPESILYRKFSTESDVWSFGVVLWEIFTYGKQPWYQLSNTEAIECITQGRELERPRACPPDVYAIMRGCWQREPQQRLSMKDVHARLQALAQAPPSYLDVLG
T3 sequence (P01139 122-241 partner): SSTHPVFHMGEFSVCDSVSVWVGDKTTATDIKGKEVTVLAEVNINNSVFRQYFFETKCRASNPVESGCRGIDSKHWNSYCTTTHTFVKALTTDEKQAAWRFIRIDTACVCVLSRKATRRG
As to the kind of experiment: Inhibition of proliferation of Ba/F3 cells co-expressing full length rTrkA and mNGF (BaF3/TrkA-NFG). The class given is cell-based. The conditions noted are these: BaF3 TRKA-NGF cells, CTG readout.

The next assay has as its system parental BaF3 cells. The assay is described as follows: Proliferation of parental (untransformed) Ba/F3 cells maintained with IL3. The class given is cell-based, murine. Particulars: read-out: Ba/F3 IC 50. On the procedure: as §1, §2
The cell line used is the luciferase expressing Ba/F3 murine hematopoietic progenitor cell line transformed with human Tel-TrkA, Tel-TrkB or Tel-TrkC cDNAs (Ba/F3 EN A/B/C). These cells maintained in RPMI/10% fetal bovine serum (RPMI/FCS) supplemented with penicillin 50 mg/mL, streptomycin 50 mg/mL and L-glutamine […]. Untransformed Ba/F3 cells were similarly maintained with the addition 5 ng/ml of murine recombinant IL3. 50 μl of a Ba/F3 or Ba/F3 EN A/B/C cell suspension were plated in Greiner 384 well microplates (white)) at a density of 2000 cells per well. 50 nl of serially diluted test compound (10-0.0001 mM in DMSO solution) is added to each well. The cells were incubated for 48 hours at 37° C., 5% CO2. 25 μl of Bright Glo® (Promega) luciferase substrate is added to each well. The emited luminiscence is quantified using the ACQUEST™ luminescence system (Molecular Devices). IC50 values were calculated by linear regression analysis of the percentage inhibition of each compound at 12 concentrations.

The mark [2] stands for this setting: Mus musculus, BaF3, parental Ba/F3 cells.

Like-named read-outs stand apart in the source and are kept apart here.

T1 sequence (P04629 510-796 limits assumed): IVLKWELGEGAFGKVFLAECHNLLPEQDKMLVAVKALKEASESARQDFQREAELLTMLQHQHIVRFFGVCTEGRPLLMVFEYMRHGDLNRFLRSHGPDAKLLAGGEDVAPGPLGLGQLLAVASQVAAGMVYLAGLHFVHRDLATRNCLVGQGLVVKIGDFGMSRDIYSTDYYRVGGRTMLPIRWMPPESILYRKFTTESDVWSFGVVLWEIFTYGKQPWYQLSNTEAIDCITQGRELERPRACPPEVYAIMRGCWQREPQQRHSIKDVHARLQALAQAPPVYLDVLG

Consider `OC1CCN(c2cncc(-c3cnc4ccc(N5CCCC5c5cccc(F)c5)nn34)n2)CC1` (stereo not shown) [Table 7-Compound 121], for which the IC50 is 0.00334 µM on Tel-TrkA, 0.00302 µM at Tel-TrkB and greater than 10 µM in the assay on parental BaF3 cells (setting [2]). For the same compound, the “BaF3 TRKA-NGF CTG IC 50” value in assay [1] turned out to be 0.00488 µM.
For `CC(C)(C)OC(=O)N1CCN(c2cccc(-c3cnc4ccc(N5CCOCC5c5cccc(F)c5)nn34)n2)CC1` (stereo not shown) [Table 2-Compound 16], the IC50 on Tel-TrkA is 0.1 µM; at Tel-TrkB it was 0.12 µM; with parental BaF3 cells (setting [2]) it was greater than 7.67 µM. Moreover, in assay [1], the “BaF3 TRKA-NGF CTG IC 50” value stood at 0.14 µM.
In the same order, the values of `Fc1cccc(C2CCCN2c2ccc3ncc(-c4cc5ccccc5nc4F)n3n2)c1` (stereo not shown) [Table 7-Compound 153] are 0.346 µM, 0.244 µM, greater than 11 µM and 0.698 µM.
In the case of `CC(C)NC(=O)CN1CCN(c2cccc(-c3cnc4ccc(N5CCCC5c5cccc(F)c5)nn34)n2)CC1` (stereo not shown) [Table 4-Compound 32], the IC50 at Tel-TrkA stood at 0.0014 µM; at Tel-TrkB it was 0.0015 µM; with parental BaF3 cells (parental Ba/F3 cells), 4.99 µM. Also, the “BaF3 TRKA-NGF CTG IC 50” value in assay [1] was 0.0026 µM.
`CN(C)CCNC(=O)C1CCN(c2cccc(-c3cnc4ccc(N5CCCC5c5cccc(F)c5)nn34)n2)CC1` (stereo not shown) [Table 7-Compound 115]: the IC50 on Tel-TrkA amounted to 0.014 µM; at Tel-TrkB, 0.014 µM; with parental BaF3 cells (setting [2]), 4.84 µM. Moreover, in assay [1], the “BaF3 TRKA-NGF CTG IC 50” value stood at 0.016 µM.
For the compound `Fc1cccc(C2COCCN2c2ccc3ncc(-c4ccc(CN5CCOCC5)cn4)n3n2)c1` (stereo not shown) [Table 2-Compound 20], the IC50 is 0.39 µM at Tel-TrkA, 0.39 µM on Tel-TrkB and greater than 10 µM in the assay on parental BaF3 cells (setting [2]). For the same compound, in assay [1], the “BaF3 TRKA-NGF CTG IC 50” value was 0.28 µM.
With `CC1CN(Cc2cccc(-c3cnc4ccc(N5CCCC5c5cccc(F)c5)nn34)n2)CC(C)O1` (stereo not shown) [Table 3-Compound 44], the IC50 at Tel-TrkA is 1.12 µM; on Tel-TrkB, 1.14 µM; in the assay with parental BaF3 cells (setting [2]), greater than 10 µM. The “BaF3 TRKA-NGF CTG IC 50” value in assay [1] stood at 1.20 µM.
On the same counts, the results for `NC(=O)C1CCCN(c2cccc(-c3cnc4ccc(N5CCOCC5c5cccc(F)c5)nn34)n2)C1` (stereo not shown) [Table 7-Compound 6] are 0.023 µM, 0.039 µM, greater than 10 µM and 0.062 µM.
In the same order, the values of `CCOC(=O)N1CCC(n2c(=O)[nH]c3cc(-c4cnc5ccc(N6CCOCC6c6cccc(F)c6)nn45)ccc32)CC1` (stereo not shown) [Table 2-Compound 19] are 2.17 µM, 1.7 µM, 5.05 µM and 1.42 µM.
For the compound `O=C(CO)NC1CN(c2cccc(-c3cnc4ccc(N5CCC[C@@H]5c5cccc(F)c5)nn34)n2)C1` [Table 7-Compound 132], the IC50 on Tel-TrkA is 0.002 µM; on Tel-TrkB, 0.002 µM; in the assay on parental BaF3 cells (setting [2]) it was greater than 11 µM. Moreover, in assay [1], the “BaF3 TRKA-NGF CTG IC 50” value worked out at 0.004 µM.
For the compound `O=C(NOCC1CC1)C1CCN(c2cccc(-c3cnc4ccc(N5CCOCC5c5cccc(F)c5)nn34)n2)CC1` (stereo not shown) [Table 7-Compound 22], the IC50 was 0.043 µM at Tel-TrkA, 0.023 µM on Tel-TrkB and greater than 10 µM in the assay on parental BaF3 cells (setting [2]). In addition, the “BaF3 TRKA-NGF CTG IC 50” value in assay [1] amounted to 0.035 µM.
As for `CNC(=O)OC1CCN(c2cccc(-c3cnc4ccc(N5CCC[C@@H]5c5cccc(F)c5)nn34)n2)CC1` [Table 7-Compound 185], the IC50 at Tel-TrkA is 0.064 µM; on Tel-TrkB it was 0.07 µM; in the assay with parental BaF3 cells (setting [2]), greater than 11 µM. The “BaF3 TRKA-NGF CTG IC 50” value in assay [1] amounted to 0.119 µM.
In the same order, the values of `OCC1CCCN(c2cccc(-c3cnc4ccc(N5CCCC5c5cccc(F)c5)nn34)n2)C1` (stereo not shown) [Table 7-Compound 98] are 0.006 µM, 0.009 µM, greater than 11 µM and 0.013 µM.
On the same counts, the results for `OCCN1CCN(c2nccc(-c3cccc(-c4cnc5ccc(N6CCC[C@@H]6c6cccc(F)c6)nn45)n3)n2)CC1` [Table 7-Compound 82] are 0.0089 µM, 0.01 µM, 0.397 µM and 0.00512 µM.
On the same counts, the results for `OC1CCN(c2nccc(-c3cccc(-c4cnc5ccc(N6CCCC6c6cccc(F)c6)nn45)n3)n2)CC1` (stereo not shown) [Table 7-Compound 57] are 0.02 µM, 0.02 µM, 6.9 µM and 0.020 µM.
Take `Fc1cccc(C2CCCN2c2ccc3ncc(-c4cccc(OCCN5CCOCC5)n4)n3n2)c1` (stereo not shown) [Table 4-Compound 25]: the IC50 on Tel-TrkA amounted to 0.01 µM; on Tel-TrkB, 0.0071 µM; with parental BaF3 cells (setting [2]), 7.5 µM. For the same compound, the “BaF3 TRKA-NGF CTG IC 50” value in assay [1] came to 0.028 µM.
In the same order, the values of `C=CC1(O)CCN(c2cccc(-c3cnc4ccc(N5CCC[C@@H]5c5cccc(F)c5)nn34)n2)CC1` [Table 7-Compound 238] are 0.017 µM, 0.025 µM, greater than 11 µM and 0.035 µM.
As for `CN1CCC(N2CCN(c3cccc(-c4cnc5ccc(N6CCOCC6c6cccc(F)c6)nn45)n3)CC2)CC1` (stereo not shown) [Table 7-Compound 8], the IC50 on Tel-TrkA was determined as 0.0082 µM; at Tel-TrkB, 0.0088 µM; in the assay on parental BaF3 cells (setting [2]), 1.57 µM. In addition, in assay [1], the “BaF3 TRKA-NGF CTG IC 50” value worked out at 0.0061 µM.
On the same counts, the results for `Fc1cccc([C@H]2CCCN2c2ccc3ncc(-c4cccc(N5CC[C@@H](NCC(F)(F)F)C5)n4)n3n2)c1` [Table 7-Compound 217] are 0.027 µM, 0.03 µM, greater than 11 µM and 0.06 µM.
For the compound `CN(C)c1nccc(-c2cccc(-c3cnc4ccc(N5CCCC5c5cccc(F)c5)nn34)n2)n1` (stereo not shown) [Table 7-Compound 58], the IC50 was 0.115 µM on Tel-TrkA, 0.15 µM on Tel-TrkB and greater than 10 µM in the assay with parental BaF3 cells (setting [2]). In addition, the “BaF3 TRKA-NGF CTG IC 50” value in assay [1] is 0.21 µM.
In the same order, the values of `O=C(C1CCN(c2cccc(-c3cnc4ccc(N5CCOCC5c5cccc(F)c5)nn34)n2)CC1)N1CCC(O)C1` (stereo not shown) [Table 7-Compound 26] are 0.0077 µM, 0.0075 µM, greater than 10 µM and 0.012 µM.
On the same counts, the results for `O=C1CCN(c2cccc(-c3cnc4ccc(N5CCC[C@@H]5c5cccc(F)c5)nn34)n2)CC1` [Table 7-Compound 181] are 0.007 µM, 0.008 µM, greater than 11 µM and 0.014 µM.
